Experimental data as given in patent US20060276440A1, “Treatment of inflammatory disorders” (priority 2005, published 2006).
Where two headings read alike, the source gives them in different places.

How the values were obtained:
Type in all cases: cell-based, human
[1] = tested on: JAK/STAT pathway (STAT 1, 3, 5); assay: STAT phosphorylation (FACS) and nuclear translocation (immunostaining) in SW1353 cells; settings: 20 nM, OSM/IL-1 activation
Procedure: SW1353 cells were seeded and treated as described above. For the flow cytometric analysis of intracellular phopho-proteins, trypsinized SW1353 cells were fixed in 1.5% formaldehyde at room temperature (RT), and permeabilized in ice cold methanol for minimum of 10 minutes. After 2× wash in wash buffer (D-PBS, with 1% FBS), cells were stained with phospho-specific antibodies (5 ug/ml final) for 20 minutes, washed 2× in wash buffer, followed by 20 minutes incubation with phycoerythrin-conjugated anti-mouse IgG (10 ug/ml final). Following 2× wash in wash buffer, cells were analyzed by flow cytometry.
For immunohistochemistry of intracellular phospho-proteins, fixation and permeabilization conditions were identical to the ones used for flow cytometric analysis. For the visualization of the phosphor-specific proteins, ImmPRESS Universal Antibody kit (Vector Laboratories, Burlingame, Calif.) was used.
The cellular and molecular mechanisms by which CA4 repressed pro-MMP-13 production, using SW1353 as the model system were investigated. […] The pathways that mediate OSM and IL-1 signal transduction were then examined. Using inhibitors that target key components of the pathways, it was shown that JAK/STAT, p38, JNK, and NF-κB pathways were important for OSM/IL-1-stimulated pro-MMP-13 production (FIG. 13B-E), but not ERK or Cox1/2 pathways (data not shown). […]

MMP-13 = assay: IL-1/OSM-stimulated pro-MMP-13 production in SW-1353 cells (ELISA); settings: Homo sapiens
Source text: To test the compounds identified in the preliminary reporter (luciferase) activity […]® line 4A1 screen for inhibition of OSM signaling in a more physiologically relevant environment, a human cell line involved in an inflammatory disease was adapted. The human cartilage cell line SW-1353 was selected.
In the human cartilage cell line SW-1353, while IL-1 is believed to activate expression of collagenases to a small degree and OSM is believed to have no effect on collagenase expression, a combination of IL-1 and OSM is believed to lead to a synergistic activation of collagenases to much higher levels (S. Cowell et al., Biochem J 331 (Pt 2), 453 (Apr. 15, 1998). Regulation of MMP-13 in SW-1353 cells is, therefore, believed to provide a biomarker which can be used to monitor IL-1/OSM-mediated signal transduction events in secondary assays.
The same supernatants of culture media used in the primary screen were assayed for IL-1/OSM-stimulated pro-MMP-13 production and MMP-2 production by enzyme-linked immunosorbent assay (ELISA).
For matrix metalloproteinase (MMP) measures, SW1353 cells were grown to confluence in 24 well plates, washed in DMEM (with Ham's F12) and placed in 500 ul of serum free DMEM/F-12 with 0.2% lactalbumin hydrosylate with and without OsM/IL-1. After 24 hrs, supernatants were collected and the amounts of proMMP13, totalMMP2, and proMMP1 were measured using Quantikine® ELISA kit for human MMPs (R & D systems, Minneapolis, Minn.). All MMP measures were normalized to viable cell numbers based on a tetrazolium (MTS) colorimetric measure (Promega, Madison, Wis.).

NF-κB = NF-κB reporter activity in transfected SW1353 cells; settings: 2 hrs pretreatment prior to IL-1/OSM, FIG. 14D
Procedure: SW1353 cells were plated at 100,000 in 24-well plates and cultured overnight in 10% FCS-DMEM/F-12. The following day, cells were transfected with 0.3 ug total DNA (pNF-kB-Luc reporter plasmid, BD biosciences San Jose, Calif.) using Lipofectamine™ 2000 (Invitrogen), according to the manufacturer's instructions. After overnight incubation, cells were washed in F12 media, pretreated with CA4 for 2 hrs, and then activated with IL-1/OSM (6 hrs) before measuring reporter activity.
The cellular and molecular mechanisms by which CA4 repressed pro-MMP-13 production, using SW1353 as the model system were investigated. […] The pathways that mediate OSM and IL-1 signal transduction were then examined. Using inhibitors that target key components of the pathways, it was shown that JAK/STAT, p38, JNK, and NF-κB pathways were important for OSM/IL-1-stimulated pro-MMP-13 production (FIG. 13B-E), but not ERK or Cox1/2 pathways (data not shown). These pathways were then examined to ascertain if activities of key components of these pathways were affected by CA4. […] Cells were pretreated with CA4 (20 nM) for 2 hrs and then activated with IL-1/OSM for 15 minutes. JNK (pT183/pY185), and ERK1/2 (pT202/pY204) phosphorylation was also not affected by CA4 (data not shown). […] Cells were pre-treated with CA4 or kamebakaurin (KA), for 2 hrs prior to IL-1/OSM activation. […]

COc1ccc(/C=C\c2cc(OC)c(OC)c(OC)c2)cc1O [Combretastatin A4 (1), (Z)-5-(3,4,5-trimethoxystyryl)-2-methoxyphenol]
STAT 1, 3, 5 phosphorylation ([1]; FACS): did not affect | STAT nuclear translocation ([1]; immunostaining): did not affect | IC50 (MMP-13; SW1353, SW-1353, IL-1/OSM-stimulated, secondary screen (Example 2), read-out: IC50, inhibition of MMP-13 (pro-MMP-13) production): 2 nM | IC50 (MMP-13; SW1353 cells, mean (Examples 8, 10), read-out: IC50 values by pro-MMP-13 (OSM/IL-1-mediated production)): 5.6 ± 1.3 nM | NF-κB reporter activity (NF-κB): did not inhibit
